Patent publication US20050201938A1, “Method for selectively inhibiting ghrelin action” (priority 2000, published 2005)

Tests used:
[1] = In vivo administration to wild-type mice: food intake and body weight; settings: for body weight increase: wild-type mice, subcutaneous injection, after 5 days of treatment, not in controls
Method: (§1) Wild-type mice (129SV strain) and NPY-knockout mice were obtained from Taconic Farms®. Eight-week old dwarf rats were purchased at Harlan UK. Animals were housed individually in a temperature controlled environment (25° C.) with a 12-hour light and 12-hour dark (18.00−06.00) photoperiod. All mice had ad libitum access to pelleted mouse food (5008 PMI® Nutrition International) and tap water. Mice were between 9 and 13 weeks of age and were injected daily between 17.00 and 18.00 with 0.1 ml of phosphate buffered saline (PBS) containing 0 or 8 mg/kg/d ghrelin over 13 days. Food intake and body weights were measured daily at 08.00 h. All animal experiments were conducted in accordance with the principles and procedures outlined in the National Institute of Health (NIH) Guide for the Care and Use of Laboratory Animals.
(§2) Mice were treated with GHRP-2 for 18 days. […] This was partially a consequence of decreased (p=0.02) lipid utilization measured by indirect calorimetry. Hypothalamic mRNA levels (measured by RT-PCR) of neuropeptide Y (NPY), agouti-related-protein (AGRP), pro-opio-melanocortin (POMC) and […] (MCH) were not changed. Since GHRP-6 increases c-fos expression in NPY-neurons (Vernon, R. G.; J Endocrinol 150, 129-40 (1996)) and because these neurons also release AGRP, a natural melanocyte stimulating hormone antagonist, GHRP-2 treatment was repeated in NPY-knockout mice (NPY-/−). […] However, an increase in AGRP mRNA levels (p=0.008, n=24 in GHRP-2 treated (NPY-/−)) was observed. Plasma levels of IGF-I, insulin, glucose and corticosterone were not changed. […] 200 μg of rat ghrelin was injected subcutaneously into wild-type mice, GHRP-2 or vehicle (phosphate buffered saline). After 5 days of treatment, body weight increased (p=0.00) 12% in both ghrelin- and GHRP-2-treated mice but not in controls. This weight gain was a consequence of decreased energy expenditure and decreased lipid utilization.

[2] = test system: NPY-knockout mice (NPY-/-); experiment: GHRP-2 treatment repeated in NPY-knockout mice; assay type: in vivo
Method: as §1
Mice were treated with GHRP-2 for 18 days. […] This was partially a consequence of decreased (p=0.02) lipid utilization measured by indirect calorimetry. Hypothalamic mRNA levels (measured by RT-PCR) of neuropeptide Y (NPY), agouti-related-protein (AGRP), pro-opio-melanocortin (POMC) and […] (MCH) were not changed. […]

[3] = Plasma levels of IGF-I, insulin, glucose and corticosterone after GHRP-2 treatment; assay type: in vivo; settings: GHRP-2 treated mice
Method: as §2

[4] = test system: hypothalamic mRNA of NPY, AGRP, POMC, MCH; experiment: Hypothalamic mRNA levels measured by RT-PCR, wild-type mice; assay type: in vivo; settings: GHRP-2 treatment
Method: as §2

[5] = Indirect calorimetry (energy expenditure, fuel utilization); assay type: in vivo, mice
Method: Twenty-four hour energy expenditure (EE) and respiratory quotient (RQ) were measured by indirect calorimetry using an open circuit calorimetry system (Oxymax, Columbus Instruments International Corporation; Columbus, Ohio). The instrument was calibrated before each experiment using standard gas mixtures containing known concentrations of CO2, N2 and O2. After the first daily injection, animals were placed in calorimeter chambers containing food and water in a room maintained under identical conditions as those described above throughout the treatment period. Gas sampled from each of 10 chambers was first dried by a condenser. The volume of oxygen consumed (VO2) and carbon dioxide produced (VCO2) in an hour was measured using a paramagnetic oxygen sensor and a spectrophotometric CO2 sensor. Such measurements were obtained hourly for 24 hours. RQ is the ratio of VCO2 to VO2. EE was calculated as the product of calorific value of oxygen (CV) and VO2 per kilogram (kg) of body weight; where CV=3.815+1.232*RQ (Elia, M. & Livesey, G, World Rev Nutr Diet 70, 68-131 (1992)). Total calories expended were calculated to determine daily fuel utilization. To calculate proportion of protein, fat and carbohydrate that is utilized during that 24-hour period, we used Flatt's proposal and assumed that protein utilization was equivalent to protein intake for adult stable animals (Flatt, J. P., J. Nutr Biochem 2, 193-202 (1991)). Using formulae and constants derived by Elia and Livesey (Elia, M. & Livesey, G., World Rev Nutr Diet, 70, 68-131 (1992)), we calculated the percent of daily fuel utilization derived from carbohydrate and fat. Daily caloric intake was calculated as (mass of daily food intake in g)*(physiological fuel value of the diet in kcal/g). Locomotor activity was measured by counting the number of times an animal breaks a new light beam during each of 24 hours in the calorimeter.
as §2

[6] = In-vivo analysis of body composition by dual-energy X-ray absorptiometry (DXA); set-up: species or system mice
Method: Body composition was measured on day 14 of the treatment period by DXA using a Norland p-DEXA® (Norland, USA). The system provides a non-invasive method for quantification of whole body composition and is based on the differential attenuation of high and low energy x-rays by the tissues in the scan area. Soft tissues attenuate the energy beam less than bone; of the soft tissue mass, fat tissue attenuates the beam less than lean tissue. Fat mass consists primarily of adipose tissue, but lean mass includes organs, tendons, cartilage, blood and body water in addition to skeletal muscle. In the present study, fat mass, lean mass and bone mineral content (bone mass) were measured and reported. Mice were anesthetized with inhalation of isoflorane and placed on the instrument platform in ventral position. Measurements were performed at a speed of 10 mm/min and a resolution of 0.5×0.5 mm. Quality controls using phantom ID2232 and Calibration Standard 82315 (Norland) were performed before starting measurements.
as §2

[7] = mice treated with GHRP-2 for 18 days, n=42, p=0.001
[8] = wild-type mice, 5 days of treatment

Substance	body weight [1, 7]	food intake [1, 7]	body weight increase [1] [%]	energy balance [2]	AGRP mRNA levels ([2]; p=0.008, n=24)	plasma level of IGF-I [3]	plasma level of corticosterone [3]	plasma level of glucose [3]	plasma level of insulin [3]	hypothalamic mRNA level of agouti-related-protein (AGRP) [4]	hypothalamic mRNA level of melanocyte-concentrating hormone (MCH) [4]	hypothalamic mRNA level of neuropeptide Y (NPY) [4]	hypothalamic mRNA level of pro-opio-melanocortin (POMC) [4]	lipid utilization ([5]; mice, 18 days treatment, indirect calorimetry, p=0.02)	energy expenditure [5, 8]	lipid utilization [5, 8]	fat mass ([6]; mice, 18 days treatment, DXA, p=0.002)	bone mass ([6]; mice, 18 days treatment, DXA, p=0.017)	lean mass ([6]; mice, 18 days treatment, DXA, p=0.63)	effect of administration in an animal model (fat deposition) ([6]; animal model, inventors' work, Nature 407: 908-913 (2000))
GHRP-2	dose-dependent increase	dose-dependent increase	12	positive energy balance	increase	not changed	not changed	not changed	not changed	not changed	not changed	not changed	not changed	decreased	decreased	decreased	significant increase	significant increase	no change	–
ghrelin	–	–	12	–	–	–	–	–	–	–	–	–	–	–	decreased	decreased	–	–	–	predominantly lead to fat deposition
